Reference: patent publication US11672817B2, “Maltosyl-Isomaltooligosaccharides” (ISOThrive Inc., priority 2016, dated 2023)
No end group written: not given here.

Columns and labels:
[1] = test system: Weissella viridescens NRRL B-1951; assay: HPLC of culture supernatants: consumption of glucose and production of organic acids with nisin; format: cell-based; conditions: for acetic acid in the fermentation media: MRS media originally contained 7% acetate
Method: (§1) 100 g MRS media was prepared to contain 5.5% solids. Two sets (one set each for nisin A and nisin Z) of eight Hach-type tubes (Kimble Chase 45066-16100) were prepared. Within each set, in order was added 5.00, 4.95, 4.90, 4.75, 4.50, 4.00, 3.50 and 3.00 g MRS media. The tubes were sealed and autoclaved.
(§2) To each tube was added, of the appropriate nisin stock, 0.00, 0.05, 0.10, 0.25, 0.50, 1.00, 1.50, and 2.00 g. Each tube was inoculated with 0.25 g of late-log W. viridescens NRRL B-1951 culture. The tubes were sealed and the absorbance at 600 nm was quickly measured (Hach DR900). The tubes were segregated by set and incubated at 31° C. overnight (15 Hr).
Each tube was sampled (1.5 mL conical polypropylene centrifuge tubes) and centrifuged at 10 kRPM for 10 minutes to remove and suspended cells. The resulting supernatants were filtered (0.2 μm nylon), diluted to 0.5% solids, and analyzed by high pressure liquid chromatography (HPLC, Agilent 1100, refractive index detector and BioRad Ainex HPX-87H column) for consumption of glucose and production of organic acids. The following table illustrates the concentration of sugars such as glucose and production of organic acids during the incubation.
Note that the MRS media originally contained 7% acetate; therefore 7% should be subtracted from the values for acetate in the above table to ascertain the amount of acetate generated during the assay.

[2] = test system: Weissella viridescens NRRL B-1951; assay: W. viridescens culture absorbance (growth) with nisin; format: cell-based; parameters: key to Corrected ABS 610rs: A600 minus background absorbance taken just after inoculation; conditions: for 91516 ABS 610f: final absorbance, uncorrected
Method: Purified nisin A and Z are commercially available and were acquired from Handary S. A. (Brussels Belgium). Certificates of analysis for each lot indicated purities of 95.2 and 99.6% for nisin A and Z, respectively.
100 g De-Man, Rogosa and Sharpe (MRS) media was prepared in a 500 mL Erlenmeyer to contain 5.5% solids in deionized water (18.2 MS2, Hydro Service and Supplies, Gaithersburg, Md.). The media was autoclaved (121° C. 15 min), cooled, and inoculated with 1 mL (0.5 mL culture+0.5 mL glycerol, 40%; frozen at −78° C.) of Weissella viridescens NRRL B-1951 (test strain). The culture was incubated at 31° C. overnight (15 Hr).
The next day, stock solutions of either nisin A or Z were prepared in deionized water to contain 31.3 and 33.7 μg/g of each peptide.
as §1, §2
Each tube was thoroughly mixed to suspend settled cells and the absorbance was measured again at 600 nm. The final absorbance values for each sample were corrected for their respective background (taken just after inoculation, scattered light from added cells). The corrected absorption values were a measure of W. viridescens growth. The corrected values were plotted against nisin concentration and minimum inhibiting concentration approximated via regression.

## nisin Z (ITSISLCTPGCKTGALMGCNMKTATCNCSIHVSK; not fully specified (residues 2, 5, 33, bridges); also: lantibiotic (thioether rings, dehydrated residues not placed); UniProt P13068 24-57, looked up, variant H27N) [Purified nisin Z, commercially available, acquired from Handary S. A; purity 99.6%; bacteriocin peptide]
[1]; nisin Z 0.34 μg/g (tube Z2)
  Maltotriose in the fermentation media: 0.282 %/brix
  ethanol in the fermentation media: 0.057 %/brix
  formic acid in the fermentation media: 0.303 %/brix
  fructose in the fermentation media: 0.000 %/brix
  glucose in the fermentation media: 22.988 %/brix
  glycerol in the fermentation media: 0.343 %/brix
  lactic acid in the fermentation media: 6.742 %/brix
  maltose in the fermentation media: 0.722 %/brix
  acetic acid in the fermentation media: 8.273 %/brix
[1]; nisin Z 1.58 μg/g (tube Z4)
  Maltotriose in the fermentation media: 0.265 %/brix
  ethanol in the fermentation media: 0.083 %/brix
  formic acid in the fermentation media: 0.309 %/brix
  fructose in the fermentation media: 0.000 %/brix
  glucose in the fermentation media: 24.153 %/brix
  glycerol in the fermentation media: 0.337 %/brix
  lactic acid in the fermentation media: 5.081 %/brix
  maltose in the fermentation media: 1.007 %/brix
  acetic acid in the fermentation media: 8.247 %/brix
[1]; nisin Z 3.19 μg/g (tube Z5)
  Maltotriose in the fermentation media: 0.311 %/brix
  ethanol in the fermentation media: 0.067 %/brix
  formic acid in the fermentation media: 0.281 %/brix
  fructose in the fermentation media: 0.000 %/brix
  glucose in the fermentation media: 24.698 %/brix
  glycerol in the fermentation media: 0.321 %/brix
  lactic acid in the fermentation media: 2.995 %/brix
  maltose in the fermentation media: 0.750 %/brix
  acetic acid in the fermentation media: 8.026 %/brix
[1]; nisin Z 6.31 μg/g (tube Z6)
  Maltotriose in the fermentation media: 0.247 %/brix
  ethanol in the fermentation media: 0.059 %/brix
  formic acid in the fermentation media: 0.267 %/brix
  fructose in the fermentation media: 0.000 %/brix
  glucose in the fermentation media: 25.353 %/brix
  glycerol in the fermentation media: 0.320 %/brix
  lactic acid in the fermentation media: 1.351 %/brix
  maltose in the fermentation media: 0.726 %/brix
  acetic acid in the fermentation media: 7.969 %/brix
[1]; nisin Z 9.54 μg/g (tube Z7)
  Maltotriose in the fermentation media: 0.291 %/brix
  ethanol in the fermentation media: 0.065 %/brix
  formic acid in the fermentation media: 0.263 %/brix
  fructose in the fermentation media: 0.000 %/brix
  glucose in the fermentation media: 25.501 %/brix
  glycerol in the fermentation media: 0.335 %/brix
  lactic acid in the fermentation media: 1.431 %/brix
  maltose in the fermentation media: 0.895 %/brix
  acetic acid in the fermentation media: 8.026 %/brix
[1]; nisin Z 12.61 μg/g (tube Z8)
  Maltotriose in the fermentation media: 0.318 %/brix
  ethanol in the fermentation media: 0.148 %/brix
  formic acid in the fermentation media: 0.299 %/brix
  fructose in the fermentation media: 0.000 %/brix
  glucose in the fermentation media: 25.740 %/brix
  glycerol in the fermentation media: 0.346 %/brix
  lactic acid in the fermentation media: 1.652 %/brix
  maltose in the fermentation media: 0.876 %/brix
  acetic acid in the fermentation media: 8.261 %/brix
[2]
  inhibition of bacterial growth: can effectively inhibit
[2]; nisin Z 0.34 μg/g (tube Z2)
  91516 ABS 610f: 1.618
  Corrected ABS 610rs: 1.146
[2]; nisin Z 0.77 μg/g (tube Z3)
  91516 ABS 610f: 1.526
  Corrected ABS 610rs: 1.062
[2]; nisin Z 1.58 μg/g (tube Z4)
  91516 ABS 610f: 1.296
  Corrected ABS 610rs: 0.841
[2]; nisin Z 3.19 μg/g (tube Z5)
  91516 ABS 610f: 0.801
  Corrected ABS 610rs: 0.359
[2]; nisin Z 6.31 μg/g (tube Z6)
  91516 ABS 610f: 0.426
  Corrected ABS 610rs: 0.003
[2]; nisin Z 9.54 μg/g (tube Z7)
  91516 ABS 610f: 0.384
  Corrected ABS 610rs: 0.001
[2]; nisin Z 12.61 μg/g (tube Z8)
  91516 ABS 610f: 0.386
  Corrected ABS 610rs: 0.001
